Several values for one entry are separate records, joined by “and”; a condition that tells them apart may be missing. Equal entries are not always repeated. Inconclusive results and toxic doses are left out. Starred links: 1 amine or outer side, 2 acyl side, 3 side chain; linkers in the order of their positions; H or OH if unused. Positions of bridges follow the written chain, without caps; N, C: chain ends. Non-standard residues stand in square brackets, D forms with d. Residues, ends and D or L forms follow the SMILES beside them. Chains are numbered I, II in the order given. Actinocin(9to1) = Cc1c2oc3c(C)ccc(C(=O)[*:1])c3nc-2c(C(=O)[*:2])c(N)c1=O; aThr = C[C@H](O)[C@H](N)C(=O)O; NMeV = CN[C@H](C(=O)O)C(C)C; Sar = CNCC(=O)O

The source of these data is PubChem BioAssay AID314 (DTP/NCI, 2004).

This assay concerns DBA/2 mice, P1534 leukemia ip, survival T/C. In words: NCI In Vivo Anticancer Drug Screen. Data for tumor model P1534 Leukemia (intraperitoneal) in DBA/2 mice. Particulars: endpoint: mean survival time, higher = longer survival. The procedure: The antitumor activity of compounds was measured in mice bearing transplantable tumors. Survival or tumor size were measured and the results are expressed as the measurement made in the treated group (T) divided by the measurement made in the vehicle treated control group (C). The tumor model used in this assay is P1534 Leukemia (intraperitoneal) in DBA/2 mice

The mark [1] stands for this setting: dose: 3.13 mg/kg/injection, schedule: Q01DX010 (ip), vehicle: saline.
Setting [2] is: dose: 6.25 mg/kg/injection, schedule: Q01DX010 (ip), vehicle: saline.
Setting [3] is: dose: 12.5 mg/kg/injection, schedule: Q01DX010 (ip), vehicle: saline.
Setting [4] is: dose: 25.0 mg/kg/injection, schedule: Q01DX010 (ip), vehicle: saline.
Setting [5] is: dose: 10.0 mg/kg/injection, schedule: Q01DX010 (ip), vehicle: saline.
Where [6] appears, read: dose: 20.0 mg/kg/injection, schedule: Q01DX010 (ip), vehicle: saline.
The mark [7] stands for this setting: dose: 50.0 mg/kg/injection, schedule: Q01DX010 (ip), vehicle: saline.
[8] abbreviates: dose: 100.0 mg/kg/injection, schedule: Q01DX010 (ip), vehicle: saline.
[9] abbreviates: dose: 200.0 mg/kg/injection, schedule: Q01DX010 (ip), vehicle: saline.
[10] abbreviates: dose: 32.0 mg/kg/injection, schedule: Q01DX010 (ip), vehicle: saline.
The mark [11] stands for this setting: dose: 64.0 mg/kg/injection, schedule: Q01DX010 (ip), vehicle: saline.
The mark [12] stands for this setting: dose: 0.5 mg/kg/injection, schedule: Q01DX010 (ip), vehicle: saline.
[13] abbreviates: dose: 1.0 mg/kg/injection, schedule: Q01DX010 (ip), vehicle: saline.
[14] abbreviates: dose: 2.0 mg/kg/injection, schedule: Q01DX010 (ip), vehicle: saline.

Regarding `C/C=C1\CN(C=O)C2CC3c4ccccc4NC3C(=O)CC1C2C(=O)OC` (stereo not drawn), the T/C was 100 % of control under setting [1], 100 % of control under setting [2], 100 % of control under setting [3] and 100 % of control under setting [4].

As to `CC1CCOS(=O)O1` (stereo not drawn), the T/C is 92 % of control under setting [5] and 92 % of control under setting [6].

Regarding `COc1cc([C@@H]2c3cc4c(c(O)c3C[C@H]3COC(=O)[C@@H]32)OCO4)cc(OC)c1OC`, the T/C was 100 % of control (dose: 39.0 micrograms/kg/injection, schedule: Q01DX010 (ip), vehicle: saline); 103 % of control (dose: 78.0 micrograms/kg/injection, schedule: Q01DX010 (ip), vehicle: saline); 90 % of control (dose: 156.0 micrograms/kg/injection, schedule: Q01DX010 (ip), vehicle: saline).

Regarding `[N-]=[N+]=CC(=O)NCC(=O)NN`, the T/C was 108 % of control under setting [7]; 100 % of control under setting [8]; 95 % of control under setting [9]; 91 % of control (dose: 400.0 mg/kg/injection, schedule: Q01DX010 (ip), vehicle: saline).

On to `NCCCCCCNC(=O)CCCCC(=O)NCCCCCCN`, for which the T/C runs as follows: (dose: 8.0 mg/kg/injection, schedule: Q01DX010 (ip), vehicle: saline) 100 % of control; (dose: 16.0 mg/kg/injection, schedule: Q01DX010 (ip), vehicle: saline) 100 % of control; under setting [10], 95 % of control; under setting [11], 95 % of control.

For the compound `O=C1C=CC2(CCC23C=CC(=O)O3)O1` (stereo not drawn), the T/C by setting is: under setting [2], 100 % of control; under setting [3], 100 % of control; under setting [4], 106 % of control; under setting [7], 86 % of control and 110 % of control.

Regarding `CCN(CC)CCNc1ccc(C)c2sc3ccccc3c(=O)c12`, the T/C runs as follows: under setting [5], 108 % of control; under setting [6], 108 % of control; (dose: 40.0 mg/kg/injection, schedule: Q01DX010 (ip), vehicle: saline) 112 % of control; (dose: 80.0 mg/kg/injection, schedule: Q01DX010 (ip), vehicle: saline) 100 % of control.

In the case of `CCNc1nncs1`, the T/C by setting is: (dose: 15.6 mg/kg/injection, schedule: Q01DX010 (ip), vehicle: saline) 100 % of control; (dose: 31.3 mg/kg/injection, schedule: Q01DX010 (ip), vehicle: saline) 100 % of control.

For the compound `N[C@@H](Cc1ccc(N(CCCl)CCCl)cc1)C(=O)O`, the T/C under setting [12] is 119 % of control and 123 % of control; the T/C (dose: 1.0 mg/kg/injection, schedule: Q01DX010 (ip), vehicle: other) is 88 % of control; the T/C under setting [13] was 119 % of control and 123 % of control; the T/C under setting [14] was 161 % of control.

Consider `O=c1cnn(C2OC(CO)C(O)C2O)c(=O)[nH]1` (stereo not drawn), for which the T/C was 103 % of control and 117 % of control under setting [7]; 96 % of control and 113 % of control under setting [8]; 91 % of control and 108 % of control under setting [9].

Turning to `CC(=O)O[C@]1(C(C)=O)CC[C@H]2[C@@H]3C[C@H](C)C4=CC(=O)C=C[C@]4(C)[C@@]3(F)[C@@H](O)C[C@@]21C`, under “dose: 12.5 mg/kg/injection, schedule: Q01DX010 (sc), vehicle: steriod suspending solution”, the T/C was 88 % of control.

On to `CCCCn1cnc2c(=S)nc[nH]c21`, for which the T/C was 96 % of control under setting [10]; 92 % of control and 96 % of control under setting [11]; 96 % of control and 100 % of control (dose: 128.0 mg/kg/injection, schedule: Q01DX010 (ip), vehicle: saline).

`CC(=O)c1cccc(NC2C(N)C(NC(=O)N(C)C)(C(C)O)C(C)(O)C2(O)COC(=O)c2c(C)cccc2O)c1` (stereo not drawn): the T/C (dose: 0.25 mg/kg/injection, schedule: Q01DX010 (ip), vehicle: saline) is 90 % of control.

In the case of `CO[C@H]1C[C@H](O[C@H]2CC[C@]3(C=O)[C@H]4CC[C@]5(C)[C@@H](C6=CC(=O)OC6)CC[C@]5(O)[C@@H]4CC[C@]3(O)C2)O[C@H](C)[C@H]1O`, the T/C (dose: 1.25 mg/kg/injection, schedule: Q01DX010 (sc), vehicle: saline) was 92 % of control; the T/C (dose: 2.5 mg/kg/injection, schedule: Q01DX010 (sc), vehicle: saline) is 103 % of control; the T/C (dose: 5.0 mg/kg/injection, schedule: Q01DX010 (sc), vehicle: saline) is 92 % of control; the T/C (dose: 10.0 mg/kg/injection, schedule: Q01DX010 (sc), vehicle: saline) is 89 % of control.

For `O=c1[nH]c(=O)n(C2CC(O)C(CO)O2)cc1I` (stereo not drawn), the T/C (dose: 125.0 mg/kg/injection, schedule: Q01DX010 (ip), vehicle: saline) is 103 % of control and 107 % of control; the T/C (dose: 250.0 mg/kg/injection, schedule: Q01DX010 (ip), vehicle: saline) was 103 % of control and 110 % of control; the T/C (dose: 500.0 mg/kg/injection, schedule: Q01DX010 (ip), vehicle: saline) was 107 % of control and 114 % of control and 121 % of control; the T/C (dose: 1000.0 mg/kg/injection, schedule: Q01DX010 (ip), vehicle: saline) is 110 % of control.

On to `O=NN(CCCl)C(=O)NCCCl`, for which the T/C was 100 % of control and 103 % of control (dose: 1.57 mg/kg/injection, schedule: Q01DX010 (ip), vehicle: saline); 103 % of control and 111 % of control under setting [1]; 100 % of control under setting [2].

On to `Cc1c2oc3c(C)ccc(C(=O)N[C@@H]4C(=O)N[C@H](C(C)C)C(=O)N5CCC[C@H]5C(=O)N(C)CC(=O)N(C)[C@@H](C(C)C)C(=O)O[C@H]4C)c3nc-2c(C(=O)N[C@@H]2C(=O)N[C@H](C(C)C)C(=O)N3CCC[C@H]3C(=O)N(C)CC(=O)N(C)[C@@H](C(C)C)C(=O)O[C@H]2C)c(N)c1=O` (I: [aThr][dV]P[Sar][NMeV] / II: [aThr][dV]P[Sar][NMeV]; ester I:1-I:C, II:1-II:C; linker I:N-II:N via Actinocin(9to1)), for which the T/C by setting is: (dose: 0.02 mg/kg/injection, schedule: Q01DX010 (ip), vehicle: other) 93 % of control; (dose: 0.03 mg/kg/injection, schedule: Q01DX010 (ip), vehicle: other) 104 % of control; (dose: 0.03 mg/kg/injection, schedule: Q01DX010 (ip), vehicle: saline) 97 % of control; (dose: 0.06 mg/kg/injection, schedule: Q01DX010 (ip), vehicle: other) 103 % of control; (dose: 0.06 mg/kg/injection, schedule: Q01DX010 (ip), vehicle: saline) 100 % of control.

Consider `C[C@@H]1CC[C@@]2(NC1)O[C@H]1C[C@H]3[C@@H]4CC=C5C[C@@H](O)CC[C@]5(C)[C@H]4CC[C@]3(C)[C@H]1[C@@H]2C`, for which the T/C runs as follows: (dose: 5.0 mg/kg/injection, schedule: Q01DX010 (sc), vehicle: steriod suspending solution) 100 % of control; (dose: 10.0 mg/kg/injection, schedule: Q01DX010 (sc), vehicle: steriod suspending solution) 106 % of control; (dose: 20.0 mg/kg/injection, schedule: Q01DX010 (sc), vehicle: steriod suspending solution) 96 % of control; (dose: 40.0 mg/kg/injection, schedule: Q01DX010 (sc), vehicle: steriod suspending solution) 93 % of control.

For `C[C@]12CC[C@H](OC3OC(CO)C(O)C(O)C3O)C[C@H]1CC[C@@H]1[C@@H]2CC[C@]2(C)[C@@H](C3=CCOC3=O)CC[C@]12O` (stereo partly drawn), the T/C under setting [12] was 100 % of control and the T/C under setting [13] was 91 % of control.

In the case of `NC(=O)N(CCCl)N=O`, the T/C was 100 % of control under setting [12], 100 % of control under setting [13] and 86 % of control under setting [14].

With `CCc1c(CC(=O)O)c2cc(C)ccc2n1Cc1ccc(Cl)cc1`, the T/C reads like this: under setting [1], 103 % of control; under setting [2], 107 % of control; under setting [3], 103 % of control.

Regarding `Cc1cc(N(CCCl)CCCl)ccc1N=Nc1ccccc1C(=O)O`, the T/C (dose: 5.0 mg/kg/injection, schedule: Q01DX010 (ip), vehicle: saline) is 114 % of control and 123 % of control; the T/C under setting [5] is 118 % of control; the T/C under setting [6] was 107 % of control and 111 % of control.

Take `C[C@H]1C(=O)O[C@@H]2CCN3CC=C(COC(=O)[C@](C)(O)[C@@]1(C)O)[C@H]23`: the T/C runs as follows: under setting [1], 100 % of control and 117 % of control; under setting [2], 96 % of control and 107 % of control; under setting [3], 96 % of control and 107 % of control; under setting [4], 100 % of control.

Turning to `C[C@]12CCC(=O)C[C@H]1CC[C@@H]1[C@@H]2CC[C@@]2(C)[C@H]1CC[C@]2(C)O`, the T/C reads like this: (dose: 50.0 mg/kg/injection, schedule: Q01DX010 (sc), vehicle: saline) 104 % of control; (dose: 100.0 mg/kg/injection, schedule: Q01DX010 (sc), vehicle: saline) 100 % of control; (dose: 200.0 mg/kg/injection, schedule: Q01DX010 (sc), vehicle: saline) 100 % of control; (dose: 400.0 mg/kg/injection, schedule: Q01DX010 (sc), vehicle: saline) 108 % of control.
